Tested on: CD1 female mouse brain lipidome
Assay: Brain-region lipid levels (HPLC/MS/MS lipidomics) 2 h after single i.p. 3 mg/kg CP 55,940 vs vehicle
Type: in vivo
Parameters: N-arachidonoyl phenylalanine level, Mean / N-stearoyl tryptophan level, Mean / N-stearoyl proline level, Mean / N-stearoyl leucine level, Mean / N-stearoyl phenylalanine level, Mean / N-stearoyl serine level, Mean / N-stearoyl methionine level, Mean: unit: moles per gram
Details: brainstem, PND 50, 3 mg/kg CP 55,940
Method: The Bloomington Institutional Animal Care and Use Committee of Indiana University reviewed and approved the animal procedures. Female mice from the CD1 strain were utilized to match our study examining THC’s effects on the brain lipidome ([Leishman et al., 2018]). Mice were given a single i.p. injection of either 3 mg/kg CP or 1:1:18 cremophor:ethanol:saline vehicle (please refer to the section “3 mg/kg CP Is Relevant for Synthetic Cannabinoid Abuse and Has Stronger Effects on the Female Mouse Brain Lipidome During Adolescence” for a justification of dose and use of female mice). Three different age groups were given injections: PND 35 and PND 50 adolescents, and adult mice (PND 113). At least eight mice in each age group received CP and at least eight received vehicle. Matching the THC study time course ([Leishman et al., 2018]), mice were sacrificed via rapid decapitation 2 h after injection. Brains were immediately removed and flash-frozen in liquid nitrogen, and then stored at -80°C until dissections were performed. Brains were dissected on an ice-cold dissection plate into the following regions: STR, HIPP, CER, THAL, CTX, HYP, MID, and STEM. These abbreviations for these brain areas will be used exclusively when discussing the results generated by these specific dissections. Each dissected area was immediately placed in liquid nitrogen and then stored at -80°C until used for lipid extraction.
Tissue extracts were performed as previously described ([Bradshaw et al., 2006]; [Stuart et al., 2013]; [Raboune et al., 2014]; [Leishman et al., 2016a],[b], [2017], [2018]). First, samples were shock frozen in liquid nitrogen, weighed, and transferred to a centrifuge tube. The mass of the largest sample was multiplied by 50 to determine how many milliliters of HPLC-grade methanol (Fisher, Fair Lawn, NJ, United States) to add. Then, samples were spiked with 500 pmol deuterium-labeled NAGly (d8NAGly; Cayman Chemical, Ann Arbor, MI, United States). Samples were placed on ice in darkness for 2 h then individually homogenized and centrifuged at 19,000 × g for 20 min at 20°C. Supernatants were diluted with HPLC water (purified in house) to make a solution of 75% water, 25% supernatant. Lipids were partially purified on C18 solid phase extraction columns (Agilent, Palo Alto, CA, United States). A series of four elutions with 1.5 mL of 60%, 75%, 85%, and 100% methanol were collected ([Stuart et al., 2013]; [Leishman et al., 2016a],[b], [2018]).
As previously described ([Bradshaw et al., 2006]; [Tan et al., 2006]; [Smoum et al., 2010]; [Stuart et al., 2013]; [Tortoriello et al., 2013]; [Raboune et al., 2014]; [Leishman et al., 2016a],[b], [2017], [2018]), samples were analyzed using an Applied Biosystems API 3000 triple quadrupole mass spectrometer with electrospray ionization (Foster City, CA, United States). Using an Agilent XDB-C18 reversed phase analytical column and optimized mobile phase gradients, 20 μL from each elution were chromatographed. Two Shimadzu 10ADvp pumps (Columbia, MD, United States) provided the pressure for gradient elution. Mobile phase A: 20% methanol, 80% water (v/v) and 1 mM ammonium acetate (Sigma, St. Louis, MO, United States). Mobile phase B: 100% methanol, 1 mM ammonium acetate. Every method run began with 0% mobile phase B, reached 100% mobile phase B flowing at 0.2 mL/min, and gradually returned to 0% mobile phase B.
This screening library will be referred to as the lipidome when discussing data from this study. HPLC/MS/MS data were analyzed using Analyst software (Applied Biosystems) ([Bradshaw et al., 2006]; [Tan et al., 2006]; [Stuart et al., 2013]; [Tortoriello et al., 2013]; [Raboune et al., 2014]; [Leishman et al., 2016a],[b], [2017], [2018]). Chromatograms (Supplementary Figure 3) were generated by determining the retention time of analytes from the analytical column with a [M-1] or [M+1] parent peak and a fragmentation peak corresponding to the programmed values. […]

## CCCCCCC(C)(C)c1ccc([C@@H]2C[C@H](O)CC[C@H]2CCCO)c(O)c1 [CP 55,940]
  N-arachidonoyl glycine level, Mean: 9.26E-12
  N-arachidonoyl methionine level, Mean: PISSR
  N-arachidonoyl phenylalanine level, Mean: 3.18E-13
  N-arachidonoyl proline level, Mean: BDL
  N-arachidonoyl serine level, Mean: 5.36E-12
  N-arachidonoyl taurine level, Mean: 1.14E-11
  N-arachidonoyl tryptophan level, Mean: BDL
  N-arachidonoyl tyrosine level, Mean: 2.42E-13
  N-docosahexaenoyl GABA level, Mean: 9.05E-13
  N-docosahexaenoyl alanine level, Mean: PISSR
  N-docosahexaenoyl ethanolamine level, Mean: 3.73E-11
  N-docosahexaenoyl glycine level, Mean: 1.5E-12
  N-docosahexaenoyl leucine level, Mean: 1.24E-13
  N-docosahexaenoyl methionine level, Mean: PISSR
  N-docosahexaenoyl phenylalanine level, Mean: 1.89E-13
  N-docosahexaenoyl proline level, Mean: BDL
  N-docosahexaenoyl serine level, Mean: 1.33E-11
  N-docosahexaenoyl tryptophan level, Mean: BDL
  N-docosahexaenoyl tyrosine level, Mean: 4.65E-13
  N-docosahexaenoyl valine level, Mean: BDL
  N-linoleoyl GABA level, Mean: 6.01E-13
  N-linoleoyl alanine level, Mean: 1.01E-13
  N-linoleoyl ethanolamine level, Mean: 3.38E-11
  N-linoleoyl glycine level, Mean: 4.12E-13
  N-linoleoyl leucine level, Mean: 4.41E-14
  N-linoleoyl methionine level, Mean: PISSR
  N-linoleoyl phenylalanine level, Mean: PISSR
  N-linoleoyl proline level, Mean: BDL
  N-linoleoyl serine level, Mean: 6.34E-11
  N-linoleoyl tryptophan level, Mean: BDL
  N-linoleoyl tyrosine level, Mean: PISSR
  N-linoleoyl valine level, Mean: BDL
  N-nervonoyl valine level, Mean: BDL
  N-oleoyl GABA level, Mean: 3.95E-12
  N-oleoyl alanine level, Mean: 1.3E-12
  N-oleoyl dopamine level, Mean: BDL
  N-oleoyl ethanolamine level, Mean: 7.29E-11
  N-oleoyl glycine level, Mean: 5.38E-12
  N-oleoyl leucine level, Mean: 4.93E-13
  N-oleoyl methionine level, Mean: 1.84E-13
  N-oleoyl phenylalanine level, Mean: 7.71E-13
  N-oleoyl proline level, Mean: BDL
  N-oleoyl serine level, Mean: 1.1E-10
  N-oleoyl tryptophan level, Mean: BDL
  N-oleoyl tyrosine level, Mean: 2.91E-13
  N-oleoyl valine level, Mean: 6.02E-14
  N-palmitoyl GABA level, Mean: 6.41E-12
  N-palmitoyl alanine level, Mean: 3.07E-12
  N-palmitoyl ethanolamine level, Mean: 6.28E-11
  N-palmitoyl glycine level, Mean: 1.47E-11
  N-palmitoyl leucine level, Mean: 1.11E-12
